{
  "source": "patent US20260158125A1",
  "about": "“PEPTIDE VACCINE” (ARGONAUT THERAPEUTICS LIMITED, priority 2021, published 2026)",
  "test_system": "splenocytes (IFN y activated T cells)",
  "experiment": "Immunogenicity assay: peptide vaccination and interferon gamma ELispot of splenocytes",
  "type": "in vivo",
  "conditions": "Balb/c mice vaccinated day 0 and 7, 50 μg/peptide with polyIC and anti-CD40; splenocytes restimulated at 15 μg/ml",
  "experimental": "Groups of 8 week old Balb/c mice (Charles River) were vaccinated i.v with the indicated peptide mix (Table 2), (50 μg/peptide (GenScript)) with 30 μg polyIC and 25 μg anti-CD40 mAb). As a positive control AH peptide (SPSYVYHQF SEQ ID NO: 156) vaccination was used (Huang et al., 1996). Vehicle-only mice were vaccinated with DMSO/PBS plus adjuvants as above. Mice were boosted i.v. 7 days later with the same formulation. Mice were culled 7 days post-boost and their spleens removed (4 mice per group). All animals were housed in specific pathogen-free conditions at the Biomedical Services Building (University of Oxford). All work was performed under UK Home Office license PPL PP3430109 in accordance with the UK Animal (Scientific Procedures) Act 1986. All work was performed by trained and licensed individuals.\nThe day before culling, Merk Multiscreen 96 well Filter Plates (Merck) were incubated with primary antibody (anti-mouse INFy mAb clone AN18, Mabtech) diluted in sterile PBS (Gibco), at 4° C. […] The splenocyte pellet was resuspended in 5 ml R10, counted and the cell concentration adjusted to 4×10^5/ml. […] The spots were quantitated on an ELISPOT counter (AID, Germany).",
  "data": [
    {"sequence": "SPSYVYHQF (AH1 peptide) [AHI1]", "values": [
      {"measurement": "immunogenicity (IFN y activated T cells, ELISpot)", "value": "positive immunogenic control"}
    ]}
  ]
}
